{
  "source": "patent US9469650B2",
  "about": "“Melampomagnolide B derivatives” (BOARD OF TRUSTEES OF THE UNIVERSITY OF ARKANSAS, priority 2013, dated 2016)",
  "key": {"MDA-MB-468": {"test_system": "MDA-MB-468", "assay": "panel of 60 human tumor cell lines, growth inhibition (Breast Cancer)", "details": "Homo sapiens"}, "RXF 393": {"test_system": "RXF 393", "assay": "panel of 60 human tumor cell lines, growth inhibition (Renal Cancer)", "details": "Homo sapiens"}, "UACC-62": {"test_system": "UACC-62", "assay": "panel of 60 human tumor cell lines, growth inhibition (Melanoma)", "details": "Homo sapiens"}, "OVCAR-8": {"test_system": "OVCAR-8", "assay": "panel of 60 human tumor cell lines, growth inhibition (Ovarian Cancer)", "details": "Homo sapiens"}, "SF-268": {"test_system": "SF-268", "assay": "panel of 60 human tumor cell lines, growth inhibition (CNS Cancer)", "details": "Homo sapiens"}, "NCI-H322M": {"test_system": "NCI-H322M", "assay": "panel of 60 human tumor cell lines, growth inhibition (Non-Small Cell Lung Cancer)", "details": "Homo sapiens"}, "A498": {"test_system": "A498", "assay": "panel of 60 human tumor cell lines, growth inhibition (Renal Cancer)", "details": "Homo sapiens"}, "SF-539": {"test_system": "SF-539", "assay": "panel of 60 human tumor cell lines, growth inhibition (CNS Cancer)", "details": "Homo sapiens"}, "CCRF-CEM": {"test_system": "CCRF-CEM", "assay": "panel of 60 human tumor cell lines, growth inhibition (Leukemia)", "details": "Homo sapiens"}, "OVCAR-5": {"test_system": "OVCAR-5", "assay": "panel of 60 human tumor cell lines, growth inhibition (Ovarian Cancer)", "details": "Homo sapiens"}, "KM12": {"test_system": "KM12", "assay": "panel of 60 human tumor cell lines, growth inhibition (Colon Cancer)"}, "UACC-257": {"test_system": "UACC-257", "assay": "panel of 60 human tumor cell lines, growth inhibition (Melanoma)"}, "MDA-MB-435": {"test_system": "MDA-MB-435", "assay": "panel of 60 human tumor cell lines, growth inhibition (Melanoma)", "details": "Homo sapiens"}, "HOP-92": {"test_system": "HOP-92", "assay": "panel of 60 human tumor cell lines, growth inhibition (Non-Small Cell Lung Cancer)", "details": "Homo sapiens"}, "SR": {"test_system": "SR", "assay": "panel of 60 human tumor cell lines, growth inhibition (Leukemia)", "details": "Homo sapiens"}, "COLO 205": {"test_system": "COLO 205", "assay": "panel of 60 human tumor cell lines, growth inhibition (Colon Cancer)", "details": "Homo sapiens"}, "HCT-15": {"test_system": "HCT-15", "assay": "panel of 60 human tumor cell lines, growth inhibition (Colon Cancer)", "details": "Homo sapiens"}},
  "data": [
    {"smiles": "C=C1C(=O)O[C@H]2[C@H]1CC/C(COC(=O)Nc1n[nH]c(SC)n1)=C\\CC[C@@]1(C)O[C@@H]21", "note": "[JVM 64, ((1aR,7aS,10aS,10bS,E)-1a-methyl-8-methylene-9-oxo-1a,2,3,6,7,7a,8,9,10a,10b-decahydrooxireno[2′,3′:9,10]cyclodeca[1,2-b]furan-5-yl)methyl-(5-(methylthio)-1H-1,2,4-triazol-3-yl)carbamate]", "values": [
      {"measurement": "GI50", "setting": "MDA-MB-468; MDA-MB-468", "result": 1.29, "unit": "µM"},
      {"measurement": "CC50", "setting": "MDA-MB-468; MDA-MB-468, read-out: LC50", "result": 21.8, "unit": "µM"},
      {"measurement": "IC (TGI)", "setting": "MDA-MB-468; MDA-MB-468, read-out: TGI", "result": 4.04, "unit": "µM"},
      {"measurement": "GI50", "setting": "RXF 393; RXF 393, RXF 393, 5-dose assay", "result": 0.9, "unit": "µM"},
      {"measurement": "GI50", "setting": "RXF 393; RXF 393, RXF 393, NCI five dose", "result": 0.906, "unit": "µM"},
      {"measurement": "CC50", "setting": "RXF 393; RXF 393, read-out: LC50", "result": 6.02, "unit": "µM"},
      {"measurement": "IC (TGI)", "setting": "RXF 393; RXF 393, read-out: TGI", "result": 2.41, "unit": "µM"},
      {"measurement": "GI50", "setting": "RXF 393; RXF 393, renal cancer cell line RXF 393", "result": 0.9, "unit": "µM"},
      {"measurement": "GI50", "setting": "UACC-62; UACC-62", "result": 1.6, "unit": "µM"},
      {"measurement": "CC50", "setting": "UACC-62; UACC-62, read-out: LC50", "result": 15, "unit": "µM"},
      {"measurement": "IC (TGI)", "setting": "UACC-62; UACC-62, read-out: TGI", "result": 4.35, "unit": "µM"},
      {"measurement": "GI50", "setting": "OVCAR-8; OVCAR-8", "result": 2.71, "unit": "µM"},
      {"measurement": "CC50", "setting": "OVCAR-8; OVCAR-8, read-out: LC50", "result": 51.6, "unit": "µM"},
      {"measurement": "IC (TGI)", "setting": "OVCAR-8; OVCAR-8, read-out: TGI", "result": 12.1, "unit": "µM"},
      {"measurement": "GI50", "setting": "SF-268; SF-268", "result": 3.73, "unit": "µM"},
      {"measurement": "CC50", "setting": "SF-268; SF-268, read-out: LC50", "result": 52.6, "unit": "µM"},
      {"measurement": "IC (TGI)", "setting": "SF-268; SF-268, read-out: TGI", "result": 14.7, "unit": "µM"},
      {"measurement": "GI50", "setting": "NCI-H322M", "result": 14.2, "unit": "µM"},
      {"measurement": "CC50", "setting": "NCI-H322M; read-out: LC50", "result": 60.3, "unit": "µM"},
      {"measurement": "IC (TGI)", "setting": "NCI-H322M; read-out: TGI", "result": 29.2, "unit": "µM"},
      {"measurement": "GI50", "setting": "A498; A498", "result": 2.56, "unit": "µM"},
      {"measurement": "CC50", "setting": "A498; A498, read-out: LC50", "result": 27.8, "unit": "µM"},
      {"measurement": "IC (TGI)", "setting": "A498; A498, read-out: TGI", "result": 7.67, "unit": "µM"},
      {"measurement": "GI50", "setting": "SF-539; SF-539", "result": 1.76, "unit": "µM"},
      {"measurement": "CC50", "setting": "SF-539; SF-539, read-out: LC50", "result": 9.46, "unit": "µM"},
      {"measurement": "IC (TGI)", "setting": "SF-539; SF-539, read-out: TGI", "result": 4.08, "unit": "µM"},
      {"measurement": "GI50", "setting": "CCRF-CEM; 5-dose assay", "result": 0.62, "unit": "µM"},
      {"measurement": "GI50", "setting": "CCRF-CEM; NCI five dose", "result": 0.626, "unit": "µM"},
      {"measurement": "GI50", "setting": "CCRF-CEM; leukemia cell line CCRF-CEM", "result": 0.62, "unit": "µM"},
      {"measurement": "CC50", "setting": "CCRF-CEM; read-out: LC50", "result": 55.8, "unit": "µM"},
      {"measurement": "IC (TGI)", "setting": "CCRF-CEM; read-out: TGI", "result": 3.56, "unit": "µM"},
      {"measurement": "GI50", "setting": "OVCAR-5; OVCAR-5", "result": 2.18, "unit": "µM"},
      {"measurement": "CC50", "setting": "OVCAR-5; OVCAR-5, read-out: LC50", "result": 24, "unit": "µM"},
      {"measurement": "IC (TGI)", "setting": "OVCAR-5; OVCAR-5, read-out: TGI", "result": 5.92, "unit": "µM"},
      {"measurement": "GI50", "setting": "KM12; Homo sapiens, KM12", "result": 4.01, "unit": "µM"},
      {"measurement": "CC50", "setting": "KM12; Homo sapiens, KM12, read-out: LC50", "result": 41.5, "unit": "µM"},
      {"measurement": "Percent Growth", "setting": "KM12; KM12, Log10 Concentration −4.0", "result": "−91", "unit": "%"},
      {"measurement": "Percent Growth", "setting": "KM12; KM12, Log10 Concentration −5.0", "result": 17, "unit": "%"},
      {"measurement": "Percent Growth", "setting": "KM12; KM12, Log10 Concentration −6.0", "result": 101, "unit": "%"},
      {"measurement": "Percent Growth", "setting": "KM12; KM12, Log10 Concentration −7.0", "result": 108, "unit": "%"},
      {"measurement": "Percent Growth", "setting": "KM12; KM12, Log10 Concentration −8.0", "result": 104, "unit": "%"},
      {"measurement": "TGI", "setting": "KM12; KM12, NCI five dose", "result": "1.43E−5"},
      {"measurement": "GI50", "setting": "UACC-257; Homo sapiens, UACC-257", "result": 1.66, "unit": "µM"},
      {"measurement": "CC50", "setting": "UACC-257; Homo sapiens, UACC-257, read-out: LC50", "result": 31.9, "unit": "µM"},
      {"measurement": "Percent Growth", "setting": "UACC-257; UACC-257, Log10 Concentration −4.0", "result": "−80", "unit": "%"},
      {"measurement": "Percent Growth", "setting": "UACC-257; UACC-257, Log10 Concentration −5.0", "result": "−20", "unit": "%"},
      {"measurement": "Percent Growth", "setting": "UACC-257; UACC-257, Log10 Concentration −6.0", "result": 70, "unit": "%"},
      {"measurement": "Percent Growth", "setting": "UACC-257; UACC-257, Log10 Concentration −7.0", "result": 93, "unit": "%"},
      {"measurement": "Percent Growth", "setting": "UACC-257; UACC-257, Log10 Concentration −8.0", "result": 102, "unit": "%"},
      {"measurement": "TGI", "setting": "UACC-257; UACC-257, NCI five dose", "result": "6.02E−6"},
      {"measurement": "GI50", "setting": "MDA-MB-435; MDA-MB-435", "result": 2.24, "unit": "µM"},
      {"measurement": "CC50", "setting": "MDA-MB-435; MDA-MB-435, read-out: LC50", "result": 74.8, "unit": "µM"},
      {"measurement": "IC (TGI)", "setting": "MDA-MB-435; MDA-MB-435, read-out: TGI", "result": 7.13, "unit": "µM"},
      {"measurement": "GI50", "setting": "HOP-92; HOP-92, HOP-92, 5-dose assay", "result": 0.65, "unit": "µM"},
      {"measurement": "GI50", "setting": "HOP-92; HOP-92, HOP-92, NCI five dose", "result": 0.655, "unit": "µM"},
      {"measurement": "GI50", "setting": "HOP-92; HOP-92, non-small cell lung cancer cell line HOP-92", "result": 0.65, "unit": "µM"},
      {"measurement": "CC50", "setting": "HOP-92; HOP-92, read-out: LC50", "result": 20.4, "unit": "µM"},
      {"measurement": "IC (TGI)", "setting": "HOP-92; HOP-92, read-out: TGI", "result": 3.84, "unit": "µM"},
      {"measurement": "GI50", "setting": "SR", "result": 2.36, "unit": "µM"},
      {"measurement": "CC50", "setting": "SR; read-out: LC50", "result": "> 100", "unit": "µM"},
      {"measurement": "IC (TGI)", "setting": "SR; read-out: TGI", "result": 7.13, "unit": "µM"},
      {"measurement": "GI50", "setting": "COLO 205; COLO 205", "result": 1.79, "unit": "µM"},
      {"measurement": "CC50", "setting": "COLO 205; COLO 205, read-out: LC50", "result": 7.35, "unit": "µM"},
      {"measurement": "IC (TGI)", "setting": "COLO 205; COLO 205, read-out: TGI", "result": 3.63, "unit": "µM"},
      {"measurement": "GI50", "setting": "HCT-15; HCT-15", "result": 2.4, "unit": "µM"},
      {"measurement": "CC50", "setting": "HCT-15; HCT-15, read-out: LC50", "result": 38, "unit": "µM"},
      {"measurement": "IC (TGI)", "setting": "HCT-15; HCT-15, read-out: TGI", "result": 9.05, "unit": "µM"}
    ]}
  ]
}
